Legend:
Assay in all cases: Test D pre-/postemergence controlled growth environment herbicide test
Format in all cases: in vivo
Details in all cases: scale 0 to 100
[1] = system: buckwheat, wild (wild buckwheat, Polygonum convolvulus)
Outline: (§1)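 Pre-emergence treatment on silt loam soil and post-emergence treatment of 1- to 4-leaf plants (2–18 cm) in peat-based medium, compounds in a non-phytotoxic solvent with surfactant. Visual rating against untreated controls after 14–21 d in a controlled environment, scale 0 (no effect) to 100 (complete control).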

[2] = system: pigweed (Amaranthus retroflexus)
Outline: as §1

[3] = system: mustard, wild (wild mustard, Sinapis arvensis)
Outline: as §1

[4] = system: downy bromegrass (Bromus tectorum)
Outline: as §1

[5] = system: barley, spring (spring barley, Hordeum vulgare)
Outline: as §1

[6] = system: wheat, winter (winter wheat, Triticum aestivum)
Outline: as §1

[7] = system: field violet (Viola arvensis)
Outline: as §1

[8] = system: windgrass (Apera spica-venti)
Outline: as §1

[9] = system: wheat, spring (spring wheat, Triticum aestivum)
Outline: as §1

[10] = system: galium (catchweed bedstraw, Galium aparine)
Outline: as §1

[11] = system: chamomile (scentless chamomile, Matricaria inodora)
Outline: as §1

Cc1cc(=O)n(-c2ccc(F)cc2)nc1Cc1ccnc(C(F)(F)F)c1 [Compound 1, 2-(4-fluorophenyl)-5-methyl-6-[[2-(trifluoromethyl)-4-pyridinyl]methyl]-3(2H)-pyridazinone]
Plant response rating ([1]; Postemergence, 31 g ai/ha): 20
Plant response rating ([1]; Postemergence, 62 g ai/ha): 20
Plant response rating ([1]; Postemergence, 125 g ai/ha): 30
Plant response rating ([1]; Postemergence, 250 g ai/ha): 40
Plant response rating ([1]; Postemergence, 500 g ai/ha): 60
Plant response rating ([1]; Preemergence, 31 g ai/ha): 0
Plant response rating ([1]; Preemergence, 62 g ai/ha): 40
Plant response rating ([1]; Preemergence, 125 g ai/ha): 70
Plant response rating ([1]; Preemergence, 250 g ai/ha): 70
Plant response rating ([1]; Preemergence, 500 g ai/ha): 70
Plant response rating ([2]; Postemergence, 31 g ai/ha): 20
Plant response rating ([2]; Postemergence, 62 g ai/ha): 30
Plant response rating ([2]; Postemergence, 125 g ai/ha): 30
Plant response rating ([2]; Postemergence, 250 g ai/ha): 40
Plant response rating ([2]; Postemergence, 500 g ai/ha): 50
Plant response rating ([2]; Preemergence, 62 g ai/ha): 20
Plant response rating ([2]; Preemergence, 125 g ai/ha): 100
Plant response rating ([2]; Preemergence, 250 g ai/ha): 100
Plant response rating ([2]; Preemergence, 500 g ai/ha): 100
Plant response rating ([3]; Postemergence, 31 g ai/ha): 20
Plant response rating ([3]; Postemergence, 62 g ai/ha): 20
Plant response rating ([3]; Postemergence, 125 g ai/ha): 30
Plant response rating ([3]; Postemergence, 250 g ai/ha): 80
Plant response rating ([3]; Postemergence, 500 g ai/ha): 80
Plant response rating ([3]; Preemergence, 62 g ai/ha): 40
Plant response rating ([3]; Preemergence, 250 g ai/ha): 95
Plant response rating ([3]; Preemergence, 500 g ai/ha): 95
Plant response rating ([4]; Postemergence, 31 g ai/ha): 0
Plant response rating ([4]; Postemergence, 62 g ai/ha): 0
Plant response rating ([4]; Postemergence, 125 g ai/ha): 10
Plant response rating ([4]; Postemergence, 250 g ai/ha): 15
Plant response rating ([4]; Postemergence, 500 g ai/ha): 25
Plant response rating ([4]; Preemergence, 31 g ai/ha): 0
Plant response rating ([4]; Preemergence, 62 g ai/ha): 0
Plant response rating ([4]; Preemergence, 125 g ai/ha): 20
Plant response rating ([4]; Preemergence, 250 g ai/ha): 25
Plant response rating ([4]; Preemergence, 500 g ai/ha): 25
Plant response rating ([5]; Postemergence, 31 g ai/ha): 0
Plant response rating ([5]; Postemergence, 62 g ai/ha): 0
Plant response rating ([5]; Postemergence, 125 g ai/ha): 5
Plant response rating ([5]; Postemergence, 250 g ai/ha): 10
Plant response rating ([5]; Postemergence, 500 g ai/ha): 10
Plant response rating ([5]; Preemergence, 31 g ai/ha): 0
Plant response rating ([5]; Preemergence, 62 g ai/ha): 5
Plant response rating ([5]; Preemergence, 125 g ai/ha): 5
Plant response rating ([5]; Preemergence, 250 g ai/ha): 30
Plant response rating ([5]; Preemergence, 500 g ai/ha): 70
Plant response rating ([6]; Postemergence, 31 g ai/ha): 0
Plant response rating ([6]; Postemergence, 62 g ai/ha): 0
Plant response rating ([6]; Postemergence, 125 g ai/ha): 5
Plant response rating ([6]; Postemergence, 250 g ai/ha): 5
Plant response rating ([6]; Postemergence, 500 g ai/ha): 10
Plant response rating ([6]; Preemergence, 31 g ai/ha): 0
Plant response rating ([6]; Preemergence, 62 g ai/ha): 0
Plant response rating ([6]; Preemergence, 125 g ai/ha): 10
Plant response rating ([6]; Preemergence, 250 g ai/ha): 50
Plant response rating ([6]; Preemergence, 500 g ai/ha): 70
Plant response rating ([7]; Postemergence, 31 g ai/ha): 20
Plant response rating ([7]; Postemergence, 62 g ai/ha): 50
Plant response rating ([7]; Postemergence, 125 g ai/ha): 75
Plant response rating ([7]; Postemergence, 250 g ai/ha): 80
Plant response rating ([7]; Postemergence, 500 g ai/ha): 90
Plant response rating ([7]; Preemergence, 31 g ai/ha): 60
Plant response rating ([7]; Preemergence, 62 g ai/ha): 80
Plant response rating ([7]; Preemergence, 125 g ai/ha): 90
Plant response rating ([7]; Preemergence, 250 g ai/ha): 98
Plant response rating ([7]; Preemergence, 500 g ai/ha): 100
Plant response rating ([8]; Postemergence, 31 g ai/ha): 20
Plant response rating ([8]; Postemergence, 62 g ai/ha): 20
Plant response rating ([8]; Postemergence, 125 g ai/ha): 20
Plant response rating ([8]; Postemergence, 250 g ai/ha): 20
Plant response rating ([8]; Postemergence, 500 g ai/ha): 20
Plant response rating ([8]; Preemergence, 31 g ai/ha): 0
Plant response rating ([8]; Preemergence, 62 g ai/ha): 20
Plant response rating ([8]; Preemergence, 125 g ai/ha): 100
Plant response rating ([8]; Preemergence, 250 g ai/ha): 100
Plant response rating ([8]; Preemergence, 500 g ai/ha): 100
Plant response rating ([9]; Postemergence, 31 g ai/ha): 0
Plant response rating ([9]; Postemergence, 62 g ai/ha): 5
Plant response rating ([9]; Postemergence, 125 g ai/ha): 5
Plant response rating ([9]; Postemergence, 250 g ai/ha): 10
Plant response rating ([9]; Postemergence, 500 g ai/ha): 10
Plant response rating ([9]; Preemergence, 31 g ai/ha): 0
Plant response rating ([9]; Preemergence, 62 g ai/ha): 0
Plant response rating ([9]; Preemergence, 125 g ai/ha): 10
Plant response rating ([9]; Preemergence, 250 g ai/ha): 15
Plant response rating ([9]; Preemergence, 500 g ai/ha): 75
Plant response rating ([10]; Postemergence, 31 g ai/ha): 30
Plant response rating ([10]; Postemergence, 62 g ai/ha): 30
Plant response rating ([10]; Postemergence, 125 g ai/ha): 45
Plant response rating ([10]; Postemergence, 250 g ai/ha): 70
Plant response rating ([10]; Postemergence, 500 g ai/ha): 90
Plant response rating ([10]; Preemergence, 31 g ai/ha): 0
Plant response rating ([10]; Preemergence, 62 g ai/ha): 10
Plant response rating ([10]; Preemergence, 250 g ai/ha): 70
Plant response rating ([10]; Preemergence, 500 g ai/ha): 100
Plant response rating ([11]; Postemergence, 31 g ai/ha): 30
Plant response rating ([11]; Postemergence, 62 g ai/ha): 30
Plant response rating ([11]; Postemergence, 125 g ai/ha): 30
Plant response rating ([11]; Postemergence, 250 g ai/ha): 60
Plant response rating ([11]; Postemergence, 500 g ai/ha): 50
Plant response rating ([11]; Preemergence, 125 g ai/ha): 70
Plant response rating ([11]; Preemergence, 250 g ai/ha): 90
Plant response rating ([11]; Preemergence, 500 g ai/ha): 100

Reference: US10202361B2, “Pyridazinones as herbicides” (E I DU PONT DE NEMOURS AND COMPANY, priority 2014, dated 2019)
